Patent US11584759B2, “Macrocyclic kinase inhibitor” (HITGEN INC., priority 2018, dated 2023)

What was measured:
TRKA Protein (wild type) = biological target: T1, TRKA Protein (wild type) (Homo sapiens, UniProt P04629); assay: Detection of TRK inhibitory activity (ADP-Glo kinase assay), TRKA wild type; format: biochemical; conditions: 35 min at room temperature
T1 construct: purchased abcam ab60887
Protocol: (§1) An enzyme reaction buffer was prepared containing 25 mM MOPS, 5 mM MgCl2, 500 μM DTT and 0.005% Triton, and then adjusted to pH 7.5.
(§2) The test compound was diluted with DMSO to 200 times of the desired final concentration, and mixed evenly, then 3 μL of the solution was pipetted to 117 μL of enzyme reaction buffer and mixed thoroughly. Then, 3 μL of the enzyme reaction buffer containing the test compound was pipetted to a 96-well PCR plate. The positive and negative control wells were filled with 3 μL of enzyme reaction buffer containing 2.5% DMSO, respectively. TRK protein was diluted to 0.4 ng/μL with the enzyme reaction buffer, and 6 μL of diluted TRK protein was added to each well except for the well for the blank control group, in which 6 μL of the enzyme reaction buffer was added. The reaction plate was centrifuged at 1000 rpm/min for 1 minute, and the compound and TRK were pre-incubated at room temperature for 10 minutes. A mixed solution with ATP at a concentration of 160 μM and substrate at a concentration of 1 μM was prepared with the enzyme reaction buffer, and 6 μL of the mixed solution was added to each reaction well. The reaction plate was centrifuged at 1000 rpm/min for 1 minute, and incubated at room temperature for 35 minutes. After the enzyme reaction was completed, 15 μL of ADP-Glo was added to each reaction well. The reaction plate was centrifuged at 1000 rpm/min for 1 minute, and incubated at room temperature for 40 minutes. Then 15 μL of the reaction solution from each well was transferred to a 384-well plate, and then 15 μL of detection substrate was added to each corresponding well of the 384-well plate. The 384-well plate was centrifuged at 1000 rpm/min for 1 minute, and incubated at room temperature for 40 minutes. After the reaction, a microplate reader was used to read the cold luminescence signal value in the 384-well plate.
(§3) The residual viability percentage of each concentration was calculated with the following formula: Residual viability (%)=100*(Lumincompond−Luminblank control)/(Luminpostive control−Luminblank control)
(§4) Then, GraphPad 5.0 was fitted to the effect curve to calculate the IC50 value.

TRKA (G667C) = TRKA (G667C) (Homo sapiens, UniProt P04629, G667C); assay: Detection of TRK inhibitory activity (ADP-Glo kinase assay), TRKA (G667C); format: biochemical
Protocol: as §1, §2, §3, §4

[1] = system: Ba/F3 ETV6-NTRK3-G623R cell line; assay: Cell experiment, CellTiter-Glo viability, Ba/F3 ETV6-NTRK3-G623R; format: cell-based; conditions: Mus musculus, BaF3, 72 hours, CTG
Protocol: (§5) Cell culture and seeding: (1) cells in logarithmic growth phase were harvested and counted using a […]. The cell viability was detected by trypan blue exclusion method to ensure that the cell viability was above 90%. (2) The cell concentration was adjusted; and 90 μl of cell suspension was added to the 96-well plate.
(§6) 10 μl of drug solution was added to each well in a 96-well plate inoculated with cells, triplicate per concentration.
(§7) End-point for reading: (1) The CTG reagent was thawed and the cell plate was equilibrated to room temperature for 30 minutes. (2) Equal volume of CTG solution was added to each well. (3) The plated was shaken on an orbital shaker for 5 minutes to lyse the cells. (4) The cell plate was placed at room temperature for 20 minutes to stabilize the cold light signal. (5) The cold light value was read.
(§8) GraphPad Prism 7.0 software was used to analyze the data, and nonlinear S-curve regression was fitted the data to get the dose-effect curve, and the IC50 value was calculated therefrom. Cell survival (%)=(Lumtest drug−Lumculture control)/(Lumcell control−Lumculture control)×100%.

[2] = system: Ba/F3 LMNA-NTRK1-G595R cell line; assay: Cell experiment, CellTiter-Glo viability, Ba/F3 LMNA-NTRK1-G595R; format: cell-based; conditions: Mus musculus, BaF3, 72 hours, CTG
Protocol: as §5, §6, §7, §8

[3] = system: Ba/F3 LMNA-NTRK1-F589L cell line; assay: Cell experiment, CellTiter-Glo viability, Ba/F3 LMNA-NTRK1-F589L; format: cell-based; conditions: Mus musculus, BaF3, 72 hours, CTG
Protocol: as §5, §6, §7, §8

NIH-3T3ΔTRKA G595R cells = assay: Drug Efficacy Test 1: tumor growth in Balb/c Nude mice; format: in vivo, mouse; conditions: subcutaneous NIH-3T3ΔTRKA G595R tumors, start at about 100 mm^3, FIG. 1
Protocol: NIH-3T3 ATRKA G595R cells are polyclonal stable transfected cell lines constructed based on TRKA mutation by our laboratory. Balb/c Nude mice, female, 6-8 weeks old, weighing 18-22 grams, were purchased from Chengdu Dashuo Experimental Animal Co., Ltd.
(§9) NIH-3T3 ATRKA G595R cells in the logarithmic growth phase were collected, counted and adjusted to a suitable cell density. 0.1 mL cell suspension (2×10^6 cells) was inoculated subcutaneously into the right back of each mouse. When the average tumor volume reached about 100 mm^3, mice were randomly divided into groups (m=6) for administrating the compound of Example 1 in solvent PEG400:HPBCD (20%, W/V) (3:1).
(§10) At the end of the experiment, all surviving experimental animals were sacrificed.
(§11) Tumor volume was calculated using formula: V=0.5 (a×b^2), wherein a and b represent the long and short diameters of the tumor, respectively.
(§12) Graph Pad Prism 6.0 was used for graph analysis.

[4] = system: BA/F3 ETV6-NTRK3 G623R cells; assay: Drug Efficacy Test 2: tumor growth in Balb/c Nude mice; format: in vivo, mouse; conditions: subcutaneous BA/F3 ETV6-NTRK3 G623R tumors, start at about 100 mm^3, FIG. 2
Protocol: BA/F3 ETV6-NTRK3 G623R cells are polyclonal stable transfected cell lines constructed based on TRKA mutation by our laboratory. Balb/c Nude mice, female, 6-8 weeks old, weighing 18-22 grams, were purchased from Chengdu Dashuo Experimental Animal Co., Ltd.
as §9, with “BA/F3 ETV6-NTRK3 G623R” for “NIH-3T3 ATRKA G595R”, “in” for “in the”, “(m=5)” for “(m=6)”
as §10, §11
GraphPadPrism6.0 was used for graph analysis.

[5] = system: BA/F3 ETV6-NTRK3 G623R cells; assay: Drug Efficacy Test 3: tumor growth in SCID mice; format: in vivo, mouse; conditions: subcutaneous BA/F3 ETV6-NTRK3 G623R tumors, start at about 300 mm^3, FIG. 3
Protocol: BA/F3 ETV6-NTRK3 G623R cells are polyclonal stable transfected cell lines constructed based on TRKA mutation by our laboratory. SCID mice, female, 6-8 weeks old, weighing 18-22 grams, were purchased from Chengdu Dashuo Experimental Animal Co., Ltd.
as §9, with “BA/F3 ETV6-NTRK3 G623R” for “NIH-3T3 ATRKA G595R”, “in” for “in the”, “300” for “100”, “(m=5)” for “(m=6)”
as §10, §11, §12

Sequence of TRKA (G667C) (P04629 33-796 G667C): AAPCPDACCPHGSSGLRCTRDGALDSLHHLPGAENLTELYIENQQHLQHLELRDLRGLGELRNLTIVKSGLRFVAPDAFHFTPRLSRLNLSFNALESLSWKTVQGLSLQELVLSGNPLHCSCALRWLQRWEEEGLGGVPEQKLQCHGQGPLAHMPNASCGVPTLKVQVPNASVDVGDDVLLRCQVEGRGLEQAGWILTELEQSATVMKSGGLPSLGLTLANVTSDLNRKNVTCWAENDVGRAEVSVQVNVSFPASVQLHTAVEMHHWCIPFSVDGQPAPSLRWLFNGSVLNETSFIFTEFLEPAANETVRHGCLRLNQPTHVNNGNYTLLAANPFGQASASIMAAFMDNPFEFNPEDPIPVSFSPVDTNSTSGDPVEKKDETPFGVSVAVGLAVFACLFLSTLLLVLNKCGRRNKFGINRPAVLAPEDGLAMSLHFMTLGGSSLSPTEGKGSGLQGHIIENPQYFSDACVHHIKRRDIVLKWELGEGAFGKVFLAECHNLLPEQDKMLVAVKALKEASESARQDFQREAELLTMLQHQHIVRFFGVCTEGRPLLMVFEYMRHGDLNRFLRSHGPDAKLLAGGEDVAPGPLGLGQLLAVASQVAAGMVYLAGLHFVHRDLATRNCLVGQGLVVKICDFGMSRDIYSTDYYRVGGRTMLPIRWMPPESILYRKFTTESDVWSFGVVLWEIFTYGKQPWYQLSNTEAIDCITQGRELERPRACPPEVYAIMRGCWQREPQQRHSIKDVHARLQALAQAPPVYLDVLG
T1 sequence (P04629 33-796): as the sequence (P04629 33-796 G667C) above, with C635G counted along it

## C[C@@H]1CCOc2ccc(F)cc2[C@H]2CCCN2c2ccc3ncc(C#N)c(c3n2)N1 [Example 1, (6R,16R)-9-fluoro-16-methyl-3-oxa-2,17,21,25-tetraazapentacyclo [16.6.2.0^2,^6.0^7,^12.0^22,^26]hexacosane-1(25),7,9,11,18(26),19,21,23-octane-19-nitrile]
TRKA Protein (wild type)
  IC50: < 50 nM
TRKA (G667C)
  IC50: < 50 nM
[1]
  IC50: 17.3 nM
  IC90: 42.3 nM
[2]
  IC50: 2.5 nM
  IC90: 83.2 nM
[3]
  IC50: 3.8 nM
  IC90: 17.1 nM
NIH-3T3ΔTRKA G595R cells
  Inhibition of tumor growth (tumor volume): inhibits the growth
[4]
  Inhibition of tumor growth (tumor volume): inhibits the growth
[5]
  Inhibition of tumor growth (tumor volume): inhibits the growth

## CN1CCN(c2ccc(C(=O)Nc3n[nH]c4ccc(Cc5cc(F)cc(F)c5)cc34)c(NC3CCOCC3)c2)CC1 [RXDX-101, reference compound]
[1]
  IC50: 466 nM
  IC90: 843 nM
[2]
  IC50: 1730 nM
  IC90: 6120 nM
[3]
  IC50: < 1 nM
  IC90: 1.4 nM
